What all share (assay): inhibition of tumour cell growth, NCI panel, 48 h
Assay [1] concerns BT-549 breast.
Assay [2] has as its system DU-145 prostate.
Assay [3] has as its system HOP-62 NSCLC.
In assay [4] the test system is HT29 colon.
Assay [5] has as its system LOX IMVI melanoma.
The subject of assay [6] is MCF7 breast.
Assay [7] concerns MDA-MB-231 breast.
The subject of assay [8] is RPMI-8226 leukemia.
The test system of assay [9] is SK-MEL-2 melanoma.
In assay [10] the test system is OVCAR-4 ovarian.

The source of these data is PubChem BioAssay (NCI).

Values joined by “and” are separate entries in the source; they are usually repeats but may differ in a detail not shown here. Identical values can stand only once.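 The compound was tested at five concentrations on cells cultured in 96-well plates, with a 48-hour exposure period. Here, GI50 denotes the concentration required for 50% inhibition of growth. TGI: concentration producing complete growth inhibition.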

Take `Clc1ccccc1[C@@H]1C[C@@H]2Cc3cc(Br)c4ccccc4c3N1O2`: the GI50 was 6.8 µM in [1]; 5.59 µM in assay [2]; 5.7 µM in assay [3]; 2.38 µM in assay [4]; 6.28 µM in [5]; 3.61 µM in assay [6]. In addition, the GI50 in assay [7] is 10.4 µM; in assay [8], 4.94 µM; in assay [9] it was 2.54 µM. Moreover, the TGI in assay [1] is greater than 100 µM; in [2], greater than 100 µM; in assay [3] it was greater than 100 µM; in assay [4], 5.19 µM; in assay [5], greater than 100 µM; in [6], greater than 100 µM. Also, the TGI in assay [7] was greater than 100 µM; in [8] it was greater than 100 µM; in [9], 6.61 µM.
As to `CCN(CC)CCC(=O)OC1C(C)=CC(C)C(=O)CC(C(C)CC2CCC(O)C(OC)C2)OC(=O)C2CCCCN2C(=O)C(=O)[C@@]2(O)OC(CCC2C)CC(OC)\C(C)=C/C=C/C=C/C(C)CC(C)C(=O)C1OC` (some centres undefined), the TGI in [1] was 15.5 µM; in assay [2], 19.7 µM; in [3] it was 21.1 µM; in assay [4], 19.9 µM; in assay [5], 19.2 µM; in assay [6], 16.1 µM. The TGI in [7] turned out to be 26.7 µM; in [10], 2.27 µM; in assay [8] it was 43.2 µM; in assay [9] it was 18.9 µM.
For `CCn1c(-c2c(Cl)cc(O)cc2Cl)cc2c(Cl)cc(O)cc21`, the TGI in assay [1] was 15.5 µM; in assay [2], greater than 100 µM; in assay [3], 31.5 µM; in [4], 6.82 µM; in assay [5], 32.8 µM; in assay [6], 25.2 µM. Further, the TGI turned out to be 31 µM in assay [7], 21.7 µM in assay [10], 87.6 µM in assay [8] and 17.1 µM in [9].
For the molecule `CN(C)c1ccc(C(=N)c2ccc(N(C)C)cc2)cc1`, the GI50 is 3.77 µM and 5.1 µM in assay [1]; 4.14 µM and 5.93 µM in assay [2]; 5.11 µM and 2.96 µM in [3]; 1.32 µM and 2.11 µM in [4]; 5.37 µM and 4.92 µM in [5]; 1.34 µM and 1.29 µM in assay [6]. The GI50 in assay [7] was 5.77 µM and 7.67 µM; in [10], 5.86 µM and 3.71 µM; in [8] it was 1.8 µM and 2.28 µM; in assay [9] it was 2.24 µM and 3.92 µM. In addition, the TGI in [1] is 28.9 µM and 29.2 µM; in assay [2], greater than 100 µM; in [3], 39.6 µM and 20.5 µM; in assay [4], 11.6 µM and 16.4 µM; in assay [5] it was 33 µM and 30.2 µM; in [6], 32.3 µM and 38.3 µM. The TGI was 47.5 µM and 30.9 µM in assay [7]; greater than 100 µM in assay [10]; 7.43 µM and 10.9 µM in [8]; 8.35 µM and 16.7 µM in assay [9].
With `C=C(C)[C@@H]1C/C=C(/CO)CC[C@H]2O[C@]2(C)CC/C=C(\C)CC1`, the GI50 in [1] is 17.5 µM; in assay [2], 18.1 µM; in assay [3], 15 µM; in assay [4] it was 14.5 µM; in [5], 15.4 µM; in [6], 15.7 µM. The GI50 was 10.7 µM in assay [7], 16.3 µM in assay [10] and 15.3 µM in assay [9]. Moreover, the TGI amounted to 34.7 µM in [1]; 60.5 µM in assay [2]; 34.4 µM in [3]; 31.6 µM in assay [4]; 30.3 µM in assay [5]; 31.8 µM in assay [6]. The values for the TGI in assay [7], in assay [10] and in assay [9] were 29.7 µM, 34.1 µM and 31.3 µM, respectively.
In the case of `COc1cc(OC)c(/C=C/C(=O)c2ccc(Nc3ncnc4ccccc34)cc2)c(OC)c1`, the GI50 in assay [1] is 1.04 µM; in [2], 1.45 µM; in assay [3], 0.966 µM; in assay [4] it was 0.364 µM; in [5], 1.06 µM; in assay [6], 0.449 µM. The GI50 in assay [7] was 1.43 µM; in assay [10] it was 1.21 µM; in [8], 0.687 µM; in assay [9] it was 1.01 µM. The TGI in [1] is 3.62 µM; in assay [2], 3.42 µM; in [3], 2.32 µM; in [4], 1.39 µM; in assay [5], 6.52 µM; in assay [6] it was 2.59 µM. For the same molecule, the TGI in [7] came to 4.11 µM; in assay [10], 3.05 µM; in assay [9], 7.36 µM.
Regarding `O=C1C=C2C=CC3CC2(O1)C1CCCCN31` (centres undefined), the GI50 in assay [1] is 13.8 µM and 10.8 µM and 37 µM; in assay [4] it was 16.1 µM and 12.9 µM and 34.7 µM; in assay [5], 17.7 µM and 18 µM and 53.3 µM; in [6], 15.3 µM and 16.8 µM and 32.6 µM; in assay [7] it was 19 µM and 21.6 µM and 39.7 µM; in [10], 25.8 µM and 22.5 µM and 65 µM. For the same molecule, the GI50 in [8] is 7.45 µM and 15.1 µM and 29.3 µM. Moreover, the TGI in [1] is 51.3 µM and 30.3 µM and > 100 µM; in assay [2] it was 50.1 µM and 36.1 µM and > 100 µM; in [4], 46.2 µM and 27.8 µM and > 100 µM; in assay [5], 44.4 µM and 42.8 µM and > 100 µM; in assay [6], 70.4 µM and 39.5 µM and > 100 µM; in assay [7], > 100 µM and 67.9 µM. For the same molecule, the TGI was > 100 µM and 92.1 µM in assay [10]; 58.9 µM and 45.7 µM and > 100 µM in assay [8]; > 100 µM and 44.5 µM and 94.4 µM in assay [9].
Regarding `O=C(O)C(Br)C(Br)C(=O)O` (centres undefined), the TGI in assay [1], in assay [2], in [3], in assay [4], in assay [5] and in [6] was greater than 100 µM throughout. For the same molecule, the TGI in assay [7], in assay [10], in [8] and in assay [9] was greater than 100 µM throughout.
Take `Cc1ccc(-c2c(C#N)[n+](=O)c3cc(F)c(F)cc3n2[O-])cc1`: the GI50 is 18.5 µM in assay [1]; 14.5 µM in assay [2]; 5.26 µM in [3]; 24.7 µM in [4]; greater than 100 µM in [5]; 5.04 µM in assay [6]. Moreover, the GI50 in assay [7] was 1.81 µM; in [10] it was 21.4 µM; in assay [8], 1.49 µM. Besides, the TGI is 33.7 µM in assay [1]; 30.9 µM in assay [2]; 19.7 µM in assay [3]; 61 µM in assay [4]; greater than 100 µM in assay [5]; 38.1 µM in [6]. The results for the TGI in assay [7], in [10] and in [8] were 3.98 µM, 41.2 µM and 6.99 µM, respectively.
